In patent US20070224674A1, “Selective Enrichiment of Microorganisms for Desired Metabolic Properties” (COMMONWEALTH SCIENTIFIC AND INDUSTRIAL RESEARCH OR, priority 2003, published 2007):

Assays:
[1] = system: Isolate 2A; test: 1-methyl-2-pyrrolidinone degradation in liquid batch culture; type: cell-based; settings: for Residual 1-methyl-2-pyrrolidinone concentration: 1.0 g l^−1 added
Procedure: (§1) The ability of the pure isolates to grow on 1-methyl-2-pyrrolidinone as the sole source of carbon in liquid culture was also evaluated (Table 3). The cultures were grown in 50 ml screw-capped plastic tubes that contained 10 ml of defined medium and 1.0 g l^−1 1-methyl-2-pyrrolidinone. To ensure each culture was inoculated with a consistent number of cells, 10 ml of medium was seeded with 100 μl of a single colony that had been resuspended in 1 ml of DM. The cultures were incubated at 30° C. shaking at 190 rpm. A single 10 ml culture was harvested by centrifugation at each time point and the supernatant kept for determination of the 1-methyl-2-pyrrolidinone concentration. The 1-methyl-2-pyrrolidinone concentrations were estimated using gas chromatography

[2] = system: Isolate 2B; test: as above; type: cell-based; settings: for Residual 1-methyl-2-pyrrolidinone concentration: 1.0 g l^−1 added
Procedure: as §1

[3] = system: microorganisms from activated sludge; test: Enrichment of activated sludge on 1-methyl-2-pyrrolidinone, growth from BOD; type: cell-based; settings: 30° C., pH 7.0
Procedure: Fresh activated sludge sourced from a wastewater treatment facility was used as the source of microorganisms for enrichment of 1-methyl-2-pyrrolidinone-utilising microbes. […] The enrichment process was performed at 30° C. and pH 7.0 (the pH was maintained at 7.0 by the automatic addition of a potassium hydroxide or hydrochloric acid solution as the alkali and acid, respectively). The feed flow rate was 60 ml h^−1.
After the addition of the activated sludge to a vessel the BOD was high (greater than 500 mg l^−1). […] After 2 ml of 1-methyl-2-pyrrolidinone was added to the vessel (Arrow A; FIG. 8) a rapid rise in BOD was observed indicating exponential growth (FIG. 8). […] Growth is exponential between 1220 and 1460 minutes and μmax can therefore be calculated as 0.52 h^−1, which corresponds to a doubling time of 1.34 hours. The rapid decline in BOD (Arrow B, FIG. 8) was due to the oxygen consumption of the microbial population being greater than the amount of oxygen supplied to the culture.

[4] = stated in words; cited from earlier work
[5] = system: Isolate 1B; test: Dodecane degradation in liquid batch culture; type: cell-based; settings: for Residual dodecane concentration: 0.75 g l^−1 added
Procedure: (§2) The ability of the pure isolates to grow on dodecane as the sole source of carbon in liquid culture was also evaluated and is shown in Table 5. The cultures were grown in 50 ml screw-capped plastic tubes that contained 10 ml of defined medium and 0.75 g l^−1 dodecane. To ensure each culture was inoculated with a consistent number of cells, 10 ml of medium was inoculated with 100 μl of a single colony that had been resuspended in 1 ml of DM. The cultures were incubated at 30° C. shaking at 190 rpm. Residual dodecane was extracted by the addition of 20 ml of hexane to a single 10 ml culture at each time point. The tube was shaken vigorously for one minute and after phase separation, the upper layer was kept for determination of the dodecane concentration. The dodecane concentrations were estimated using gas chromatography.

[6] = system: Isolate 1C; test: Dodecane degradation in liquid batch culture; type: cell-based; settings: for Residual dodecane concentration: 0.75 g l^−1 added
Procedure: as §2

[7] = system: Isolate 1D; test: Dodecane degradation in liquid batch culture; type: cell-based; settings: for Residual dodecane concentration: 0.75 g l^−1 added
Procedure: as §2

[8] = system: E. coli; test: Growth on glucose and benzyl alcohol in defined medium, batch culture; type: cell-based, Escherichia coli BL21DE3
Procedure: (§3) For these control experiments a steady state culture of an Escherichia coli BL21DE3 which was supplied by Novagen (Novagen Inc., Madison, Wis., USA) and was expected to grow on glucose only was used. The culture was established using 5 ml of an E. coli culture taken from a 100 ml shake flask culture which had been grown for 17 hours shaking at 200 rpm and 30° C. in defined medium with 1.0 g l^−1 glucose as the carbon source. Although the feed contained another substrate (benzyl alcohol), no growth on this substrate was expected because this microbial population was known to be unable to use this carbon source for growth. When steady state had been established, 10 mL of a 100 mL shake flask culture of Pseudomonas putida F1 was added. The P. putida F1 culture had been grown at 30° C. for 17 hours, with shaking at 200 rpm, in defined medium with 1.0 g l^−1 glucose as the carbon source. The P. putida F1 was supplied by the American Type Culture Collection (ATCC) and was expected to grow on benzyl alcohol and/or glucose. The OUR was expected to change as a result of the increased microbial activity after the addition of P. putida.
(§4) The success of this control experiment was dependent upon the ability of E. coli to grow on glucose in DM and grow in DM in the presence of benzyl alcohol (i.e. benzyl alcohol is not toxic to E. coli). Also of key importance was the inability of E. coli to grow on benzyl alcohol. […] Although P. putida is well known for its ability to grow on a wide range of aromatic substrates (Wackett, & Hershberger, 2001), growth on benzyl alcohol has not been reported. The optical density at inoculation was calculated (based upon the optical density on the inocula) as 0.021 (E. coli) and 0.026 (P. putida). The cultures were incubated shaking at 200 rpm and 30° C. The optical density was measured at 600 nm after incubation for 23.5 and 75 hours.

[9] = system: P. putida; test: as above; type: cell-based, Pseudomonas putida F1
Procedure: as §3, §4

[10] = system: E. coli and P. putida continuous culture; test: Continuous culture population shift, residual substrate by gas chromatography; type: cell-based, Escherichia coli BL21DE3, Pseudomonas putida F1; settings: when BOD stabilised after addition of P. putida; feed 1.0 g l^−1 benzyl alcohol and 0.5 g l^−1 glucose, 30 ml h^−1
Procedure: Based on the BOD it was clear that steady state had been attained (it is generally assumed that steady state has been established after turnover of at least three vessel volumes which, in this example would occur after 37.5 hours). After 125.7 hours (equivalent to 10 vessel volumes) of continuous operation, P. putida was added to the culture. Initially, there was no change in the BOD so to ensure P. putida was not being washed out of the vessel the feed flow rate was reduced from 60 ml h^−1 to 30 ml h^−1. […] This observation was confirmed by measuring the residual benzyl alcohol in the culture supernatant, which had started to decrease. As the P. putida population developed the BOD increased, peaking initially at nearly 1400 mg l^−1 before declining to 1050 mg l^−1 after which a second peak in the BOD was observed. […] After the second BOD peak, the BOD stabilised at 1040 mg l^−1 which was the expected BOD for a feed containing 0.5 g l^−1 glucose and 1.0 g l^−1 benzyl alcohol (see calculation below).
The feed consisting of DM containing 0.5 g l^−1 glucose and 1.0 g l^−1 benzyl alcohol was fed into a vessel at 30° C. and pH 7. The feed flow rate was initially 60 ml h^−1. […] At the same time that the BOD stabilised the measured residual benzyl alcohol concentration was zero. […]

[11] = system: 1,3-propanediol-degrading microbial population (activated sludge); test: Enrichment of activated sludge on 1,3-propanediol, growth from BOD; type: cell-based
Procedure: Isolation of 1,3-propanediol-degrading microorganisms was used to test the feedback loop between feed flow rate and OUR. The feed medium was a defined medium designated 461S (Appendix I) which contained 1.0 g l^−1 1,3-propanediol and the initial flow rate was 43.5 ml h^−1. The operating temperature was 30° C. and pH 7.0. The medium was inoculated with ˜700 ml of activated sludge. The feed flow rate was increased by 20 ml h^−1 if the BOD remained constant for four vessel volumes. After an initial peak in the BOD, which was due to 1,3-propanediol being in excess, the BOD remained constant over a range of flow rates. […] This observation was expected because the inferred μmax of the population from the initial peak in BOD at the start of the experiment was ˜0.25 h^−1 (a doubling time of 2.8 hours). […] could be achieved with any microbial population that is established in the culture because there is a good probability that mutants which can grow at a higher rate will be selected at high feed flow rates.

[12] = batch culture, over a 168 hours period
[13] = benzyl alcohol 1.0 g l^−1 only carbon source, 23.5 hours
[14] = benzyl alcohol 1.0 g l^−1 only carbon source, 75 hours
[15] = benzyl alcohol 1.0 g l^−1 with glucose 0.1 g l^−1, 23.5 hours
[16] = benzyl alcohol 1.0 g l^−1 with glucose 0.1 g l^−1, 75 hours
[17] = glucose 0.1 g l^−1 only carbon source, 23.5 hours incubation, 30° C.
[18] = glucose 0.1 g l^−1 only carbon source, 75 hours incubation, 30° C.

CN1CCCC1=O [1-methyl-2-pyrrolidinone]
Residual 1-methyl-2-pyrrolidinone concentration ([1]; 24 h after inoculation): NDa (Not detected (limit of detection · 20 mg l^−1))
Residual 1-methyl-2-pyrrolidinone concentration ([1]; 48 h after inoculation): ND (Not detected (limit of detection · 20 mg l^−1))
Residual 1-methyl-2-pyrrolidinone concentration ([1]; 72 h after inoculation): ND (Not detected (limit of detection · 20 mg l^−1))
Residual 1-methyl-2-pyrrolidinone concentration ([1]; 96 h after inoculation): ND (Not detected (limit of detection · 20 mg l^−1))
Residual 1-methyl-2-pyrrolidinone concentration ([1]; 168 h after inoculation): ND (Not detected (limit of detection · 20 mg l^−1))
Time to completely degrade 1.0 g l^−1 1-methyl-2-pyrrolidinone ([1]; batch culture): ≤ 24 h
Residual 1-methyl-2-pyrrolidinone concentration ([2]; 24 h after inoculation): ND (Not detected (limit of detection · 20 mg l^−1))
Residual 1-methyl-2-pyrrolidinone concentration ([2]; 48 h after inoculation): ND (Not detected (limit of detection · 20 mg l^−1))
Residual 1-methyl-2-pyrrolidinone concentration ([2]; 72 h after inoculation): ND (Not detected (limit of detection · 20 mg l^−1))
Residual 1-methyl-2-pyrrolidinone concentration ([2]; 96 h after inoculation): ND (Not detected (limit of detection · 20 mg l^−1))
Residual 1-methyl-2-pyrrolidinone concentration ([2]; 168 h after inoculation): ND (Not detected (limit of detection · 20 mg l^−1))
Time to completely degrade 1.0 g l^−1 1-methyl-2-pyrrolidinone ([2]; batch culture): ≤ 24 h
μmax of the population growing on the substrate ([3]; calculated from exponential BOD rise between 1220 and 1460 minutes): 0.52 h⁻¹
Doubling time ([3]; corresponds to μmax): 1.34 h
Solubility in water [4]: soluble in water

CCCCCCCCCCCC [dodecane]
Residual dodecane concentration ([5]; 24 h after inoculation): 920 mg/L
Residual dodecane concentration ([5]; 48 h after inoculation): 160 mg/L
Residual dodecane concentration ([5]; 72 h after inoculation): 420 mg/L
Residual dodecane concentration ([5]; 96 h after inoculation): 270 mg/L
Residual dodecane concentration ([5]; 168 h after inoculation): 290 mg/L
Dodecane added to the culture that was used [5, 12]: 50 to 60%
Residual dodecane concentration ([6]; 24 h after inoculation): 630 mg/L
Residual dodecane concentration ([6]; 48 h after inoculation): 620 mg/L
Residual dodecane concentration ([6]; 72 h after inoculation): 440 mg/L
Residual dodecane concentration ([6]; 96 h after inoculation): 440 mg/L
Residual dodecane concentration ([6]; 168 h after inoculation): 280 mg/L
Dodecane added to the culture that was used [6, 12]: 50 to 60%
Residual dodecane concentration ([7]; 24 h after inoculation): 1080 mg/L
Residual dodecane concentration ([7]; 48 h after inoculation): 920 mg/L
Residual dodecane concentration ([7]; 72 h after inoculation): 740 mg/L
Residual dodecane concentration ([7]; 96 h after inoculation): 410 mg/L
Residual dodecane concentration ([7]; 168 h after inoculation): 310 mg/L
Dodecane added to the culture that was used [7, 12]: 50 to 60%
Solubility in water [4]: practically insoluble in water

OCc1ccccc1 [Benzyl alcohol, benzyl alcohol]
Optical density at 600 nm [8, 13]: 0.027
Optical density at 600 nm [8, 14]: 0.024
Optical density at 600 nm [8, 15]: 0.102
Optical density at 600 nm [8, 16]: 0.097
Optical density at 600 nm [9, 13]: 0.021
Optical density at 600 nm [9, 14]: 0.417
Optical density at 600 nm [9, 15]: 0.042
Optical density at 600 nm [9, 16]: 0.353
Residual benzyl alcohol concentration [10]: zero

OCCCO [1,3-propanediol]
Doubling time ([11]; corresponds to inferred μmax): 2.8 h
Inferred μmax of the population ([11]; from the initial peak in BOD, 1.0 g l^−1 in feed, 30° C., pH 7.0): ~0.25 h⁻¹

O=C[C@H](O)[C@@H](O)[C@H](O)[C@H](O)CO [Glucose, glucose]
Optical density at 600 nm [8, 17]: 0.116
Optical density at 600 nm [8, 18]: 0.102
Optical density at 600 nm [9, 17]: 0.170
Optical density at 600 nm [9, 18]: 0.138
